From the supplement of paper PMC11061612

Legend:
Experiment in all cases: Bliss excess, mean over the matrix (fraction); higher = more synergy
[1] = system: CHSA8926 (Chondrosarcoma)
Summary of the method: (§1)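 After 24 hours at 37°C and 5% CO2 in 1536-well plates, cells in DMEM/F12 or RPMI plus 10% FBS received two-drug dose matrices for 72 hours. Viability came from CellTiter-Glo 2.0 luminescence and was scaled as inhibition, anchored at 0 by vehicle wells and at 1 by blank wells. Combination Emax is taken as the second-highest inhibition in the matrix, and Bliss excess as the observed combination effect less EA + EB − EA·EB, with EA and EB the single-agent effects.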

[2] = system: CW-2 (Colorectal Carcinoma)
Summary of the method: as §1

[3] = system: G-361 (Melanoma)
Summary of the method: as §1

[4] = system: H9 (T-Cell Non-Hodgkin's Lymphoma)
Summary of the method: as §1

[5] = system: HCC1187 (Breast Carcinoma)
Summary of the method: as §1

[6] = system: HCC1419 (Breast Carcinoma)
Summary of the method: as §1

[7] = system: JHH-4 (Hepatocellular Carcinoma)
Summary of the method: as §1

[8] = system: KP-3 (Pancreatic Carcinoma)
Summary of the method: as §1

[9] = system: KYSE-270 (Esophageal Squamous Cell Carcinoma)
Summary of the method: as §1

[10] = system: MOLM-13 (Acute Myeloid Leukemia)
Summary of the method: as §1

[11] = system: NCCIT (Other Solid Carcinomas)
Summary of the method: as §1

[12] = system: NCI-H2731 (Mesothelioma)
Summary of the method: as §1

[13] = system: NCI-H3122 (Lung Adenocarcinoma)
Summary of the method: as §1

[14] = system: NCI-H526 (Small Cell Lung Carcinoma)
Summary of the method: as §1

[15] = system: RPMI-8226 (Plasma Cell Myeloma)
Summary of the method: as §1

[16] = system: SK-GT-2 (Gastric Carcinoma)
Summary of the method: as §1

[17] = system: SK-GT-4 (Esophageal Adenocarcinoma)
Summary of the method: as §1

[18] = system: ST486 (Burkitt's Lymphoma)
Summary of the method: as §1

[19] = system: SU-DHL-5 (B-Cell Non-Hodgkin's Lymphoma)
Summary of the method: as §1

[20] = system: T-T (Esophageal Squamous Cell Carcinoma)
Summary of the method: as §1

Cc1c2c(nn1C)CSCc1cc(n(C)n1)CSc1cc(c3ccccc3c1)OCCCc1c(C(=O)O)n(C)c3c-2c(Cl)ccc13 [AZD5991] + CC1(C)CCC(CN2CCN(c3ccc(C(=O)NS(=O)(=O)c4ccc(NCC5CCOCC5)c([N+](=O)[O-])c4)c(Oc4cnc5[nH]ccc5c4)c3)CC2)=C(c2ccc(Cl)cc2)C1 [Venetoclax] (first compound max 1 µM, 7x7, partner max 1 µM)
Bliss excess [1]: -0.031
Bliss excess [2]: 0.0005
Bliss excess [3]: 0.008
Bliss excess [4]: 0.0048
Bliss excess [5]: 0.0026
Bliss excess [6]: 0.0157
Bliss excess [7]: 0.0098
Bliss excess [8]: -0.0533
Bliss excess [9]: 0.0348
Bliss excess [10]: 0.125
Bliss excess [11]: -0.032
Bliss excess [12]: -0.0519
Bliss excess [13]: -0.0378
Bliss excess [14]: 0.243
Bliss excess [15]: 0.007
Bliss excess [16]: -0.0035
Bliss excess [17]: -0.0914
Bliss excess [18]: 0.0088
Bliss excess [19]: -0.0379
Bliss excess [20]: -0.0051

CC1(C)CCC(CN2CCN(c3ccc(C(=O)NS(=O)(=O)c4ccc(NCC5CCOCC5)c([N+](=O)[O-])c4)c(Oc4cnc5[nH]ccc5c4)c3)CC2)=C(c2ccc(Cl)cc2)C1 [Venetoclax] + CCN(CCO)CCCOc1ccc2c(Nc3cc(CC(=O)Nc4cccc(F)c4)[nH]n3)ncnc2c1 [AZD2811] (first compound max 1 µM, 7x7, partner max 1 µM)
Bliss excess [1]: 0.0042
Bliss excess [2]: 0.0269
Bliss excess [3]: -0.0163
Bliss excess [4]: -0.0616
Bliss excess [5]: -0.0165
Bliss excess [6]: -0.0448
Bliss excess [7]: -0.0152
Bliss excess [8]: -0.0316
Bliss excess [9]: -0.0072
Bliss excess [10]: 0.0626
Bliss excess [11]: 0.0139
Bliss excess [12]: -0.021
Bliss excess [13]: -0.0229
Bliss excess [14]: 0.138
Bliss excess [15]: 0.0361
Bliss excess [16]: 0.0136
Bliss excess [17]: -0.0295
Bliss excess [18]: -0.0299
Bliss excess [19]: -0.125
Bliss excess [20]: 0.0158

CN(CCO)CC[C@H](CSc1ccccc1)Nc1ccc(S(=O)(=O)NC(=O)c2ccc(N3CCC([C@@H](O)c4ccccc4-c4ccc(Cl)cc4)CC3)cc2)cc1S(=O)(=O)C(F)(F)F [AZD4320] + C1CN(CCC1(C(=O)N[C@@H](CCO)C2=CC=C(C=C2)Cl)N)C3=NC=NC4=C3C=CN4 [Capivasertib] (first compound max 1 µM, 7x7, partner max 3 µM)
Bliss excess [1]: -0.0059
Bliss excess [2]: -0.0284
Bliss excess [3]: -0.0244
Bliss excess [4]: 0.0026
Bliss excess [5]: -0.0276
Bliss excess [6]: 0.0421
Bliss excess [7]: -0.0411
Bliss excess [8]: -0.0438
Bliss excess [9]: -0.0441
Bliss excess [10]: -0.0169
Bliss excess [11]: 0.0224
Bliss excess [12]: -0.0435
Bliss excess [13]: -0.0613
Bliss excess [14]: -0.0075
Bliss excess [15]: 0.0027
Bliss excess [16]: -0.0158
Bliss excess [17]: -0.0345
Bliss excess [18]: -0.0345
Bliss excess [19]: 0.0065
Bliss excess [20]: -0.0171

CC1(C)CCC(CN2CCN(c3ccc(C(=O)NS(=O)(=O)c4ccc(NCC5CCOCC5)c([N+](=O)[O-])c4)c(Oc4cnc5[nH]ccc5c4)c3)CC2)=C(c2ccc(Cl)cc2)C1 [Venetoclax] + C=CCn1c(=O)c2cnc(Nc3ccc(N4CCN(C)CC4)cc3)nc2n1-c1cccc(C(C)(C)O)n1 [AZD1775] (first compound max 1 µM, partner max 1 µM)
Bliss excess [1]: -0.0333
Bliss excess [2]: -0.0091
Bliss excess [3]: -0.0214
Bliss excess [4]: -0.0295
Bliss excess [5]: -0.0522
Bliss excess [6]: -0.0261
Bliss excess [7]: -0.0538
Bliss excess [8]: -0.0085
Bliss excess [9]: 0.0742
Bliss excess [10]: 0.0122
Bliss excess [11]: 0.0522
Bliss excess [12]: -0.0295
Bliss excess [13]: -0.0505
Bliss excess [14]: -0.0183
Bliss excess [15]: 0.0368
Bliss excess [16]: 0.0014
Bliss excess [17]: 0.0384
Bliss excess [18]: 0.108
Bliss excess [19]: -0.0814
Bliss excess [20]: 0.0832

COc1cccc(OCCCN)c1-c1cc(Nc2cnc(C#N)cn2)n[nH]1 [Prexasertib] + Cc1cc2ncnn2cc1Nc1ncc2c(n1)n(C1CCOCC1)c(=O)n2C [AZD7648] (first compound max 1 µM, 7x7, partner max 10 µM)
Bliss excess [1]: -0.0143
Bliss excess [2]: 0.043
Bliss excess [3]: -0.0052
Bliss excess [4]: 0.0256
Bliss excess [5]: 0.0307
Bliss excess [6]: -0.0211
Bliss excess [7]: -0.0281
Bliss excess [8]: 0.0141
Bliss excess [9]: -0.0355
Bliss excess [10]: -0.0094
Bliss excess [11]: -0.0331
Bliss excess [12]: -0.0001
Bliss excess [13]: 0.0055
Bliss excess [14]: -0.0038
Bliss excess [15]: -0.0936
Bliss excess [16]: -0.0454
Bliss excess [17]: -0.088
Bliss excess [18]: -0.0289
Bliss excess [19]: -0.0314
Bliss excess [20]: 0.0364

CCN(CCO)CCCOc1ccc2c(Nc3cc(CC(=O)Nc4cccc(F)c4)[nH]n3)ncnc2c1 [AZD2811] + C[C@@H]1COCCN1C2=NC(=NC(=C2)C3(CC3)[S@](=N)(=O)C)C4=C5C=CNC5=NC=C4 [AZD6738] (first compound max 1 µM, 7x7, partner max 10 µM)
Bliss excess [1]: -0.0037
Bliss excess [2]: -0.0116
Bliss excess [3]: -0.0875
Bliss excess [4]: -0.0673
Bliss excess [5]: -0.0841
Bliss excess [6]: -0.0757
Bliss excess [7]: -0.0341
Bliss excess [8]: -0.0582
Bliss excess [9]: -0.0449
Bliss excess [10]: -0.0161
Bliss excess [11]: -0.0506
Bliss excess [12]: -0.0668
Bliss excess [13]: -0.063
Bliss excess [14]: -0.0178
Bliss excess [15]: -0.0178
Bliss excess [16]: -0.0272
Bliss excess [17]: -0.0183
Bliss excess [18]: -0.0205
Bliss excess [19]: -0.0382
Bliss excess [20]: -0.0105

COc1nnc2ccc(N3CCC(c4ccc(OCCN5CCN(C)C(=O)[C@H]5C)cc4)CC3)nn12 [AZD5153] + Cc1c2c(nn1C)CSCc1cc(n(C)n1)CSc1cc(c3ccccc3c1)OCCCc1c(C(=O)O)n(C)c3c-2c(Cl)ccc13 [AZD5991] (first compound max 1 µM, 7x7, partner max 1 µM)
Bliss excess [1]: -0.0166
Bliss excess [2]: -0.0629
Bliss excess [3]: 0.0501
Bliss excess [4]: -0.0056
Bliss excess [5]: 0.0079
Bliss excess [6]: -0.0411
Bliss excess [7]: 0.0096
Bliss excess [8]: -0.0446
Bliss excess [9]: 0.0085
Bliss excess [10]: -0.0238
Bliss excess [11]: -0.0196
Bliss excess [12]: -0.0327
Bliss excess [13]: -0.0279
Bliss excess [14]: 0.03
Bliss excess [15]: -0.0253
Bliss excess [16]: 0.0224
Bliss excess [17]: -0.0304
Bliss excess [18]: -0.0275
Bliss excess [19]: -0.0264
Bliss excess [20]: -0.0157
